Experiments:
[1] = tested on: cisplatin-induced bone marrow injury; assay: Complete blood count 4 weeks after bone marrow transplantation; format: in vivo, mice; conditions: for HCT (hematocrit) / Hgb (hemoglobin) / MCH (mean corpuscular hemoglobin) / MCHC (mean corpuscular hemoglobin concentration) / MCV (mean cell volume) / MPV (mean platelet volume) / PLT (platelets) / RBC (red blood cell) / RDW-CV (red cell volume distribution width-coefficient of variation) / WBC (white blood cell): complete blood count 4 weeks after transplantation, groups PBS or cisplatin / PBS or NPY
Text: (§1) The mice were lethally irradiated (10 Gy, two split doses) and injected with 1×10^6 BM from CD45.1^+ (BoyJ) mice. After 4 weeks, the mice were sacrificed, and bone marrow and blood were obtained for analysis.
(§2) Next, to evaluate further whether NPY treatment prevents cisplatin-induced mouse death and injury of BM, bone marrow mononuclear cells (BMNCs) were transplanted into cisplatin-treated mice with or without NPY treatment after lethal irradiation. FIG. 2H illustrates an experimental design for verifying whether NPY protects a Th^+ fiber from cisplatin-induced bone marrow injury and whether to accelerate posttransplant bone marrow recovery.
Table 1 is a diagram illustrating an increase in blood cell recovery in NPY-treated mice after cisplatin treatment. A complete blood count was performed by targeting PBS or cisplatin-treated mice after 4 weeks after transplantation and after NPY treatment.

[2] = tested on: cisplatin-induced neuropathy; assay: Hot-plate (heated-pad) test of sensory neuropathy after seven cycles of cisplatin with or without NPY; format: in vivo, mice
Procedure: (§3) Cisplatin (Enzo; 10 mg per kg body weight once per week) was used to induce SNS injury. Mice received i.p. injections of cisplatin for 7 weeks as described. The mice were euthanized after 2 weeks after the last injection of cisplatin (for full bone marrow recovery).
(§4) To assess neuroprotection from cisplatin, mice were injected i.p. with NPY (Bachem, H-6375) daily during the 7-week cisplatin treatment period.
For measuring effects of different treatments on sensory responses, a hot-plate test was performed.
A hot plate (Leica) was maintained at 50° C. and each mouse was positioned on the end of the heated surface, first nociception, that is, a time until jumping or paw licking was measured. A cut-off time was set as 60 seconds. For the measurement, the heated surface was cleaned with a detergent and ethanol and a temperature was maintained at 50° C.
Next, control, Lyz2-cre; Y1^fl/fl, or Col1a1-cre; Y1^fl/fl mice were treated with seven cycles of cisplatin for the induction of neuropathy. In some animals, NPY was administered during cisplatin chemotherapy. […]
FIG. 2B illustrates a quantitative analysis result of sympathetic neuropathy (after 2 weeks after the last cisplatin injection) in a control group, Lyz2-cre; Y1^fl/fl or Col1a1-cre; Y1^fl/fl mice treated with cisplatin alone or cisplatin and NPY (n=6-10 mice per group, i.p). […]

[3] = tested on: cisplatin-induced bone marrow injury; assay: Bone marrow transplantation after lethal irradiation in cisplatin-treated mice with or without NPY: survival and bone marrow recovery; format: in vivo
Procedure: as §3, §4, §1, §2
FIG. 2I illustrates a survival result of mice of each group (n=10-15 mice per group).
FIG. 2J is a diagram illustrating the number of BMNCs (left side), a percentage of LSK cells (middle), and LT-HSCs (right side) in BM of WT mice treated with PBS, cisplatin or NPY, which are evaluated after 4 weeks after transplanting bone marrow (n=5-6 mice per group).
FIG. 2K illustrates a percentage of nestin-positive and CD31^+ endothelial cells in the femur of each group.

[4] = tested on: cisplatin-induced sympathetic nervous system (SNS) injury; assay: Quantification of Th+ fibers and nestin-positive and CD31+ endothelial cells in bone marrow after cisplatin with or without NPY; format: in vivo, mice
Procedure: as §3, §4
Next, control, Lyz2-cre; Y1^fl/fl, or Col1a1-cre; Y1^fl/fl mice were treated with seven cycles of cisplatin for the induction of neuropathy. In some animals, NPY was administered during cisplatin chemotherapy. FIG. 2A is an experimental design for determining an effect of the Y1 receptor in the macrophages or osteoblasts in cisplatin-induced neuropathy, after NPY treatment.
Further, FIG. 2E is a diagram illustrating a quantitative analysis of a Th^+ fiber in BM of each group (n=5-6 mice per group).
FIG. 2F is a diagram illustrating the number (n=5-6 mice per group) of nestin-positive and CD31^+ endothelial cells per femoral region of each group.

[5] = NPY i.p. daily during 7-week cisplatin treatment, cisplatin-treated control or Col1a1-cre, Y1fl/fl mice

Compound	HCT (hematocrit) [1]	Hgb (hemoglobin) [1]	MCH (mean corpuscular hemoglobin) [1]	MCHC (mean corpuscular hemoglobin concentration) [1]	MCV (mean cell volume) [1]	MPV (mean platelet volume) [1]	PLT (platelets) [1]	RBC (red blood cell) [1]	RDW-CV (red cell volume distribution width-coefficient of variation) [1]	WBC (white blood cell) [1]	sensory neuropathy (hot-plate latency) ([2]; 2 weeks after the last injection, cisplatin 10 mg per kg i.p. once per week for 7 weeks)	blood cell recovery ([1]; NPY-treated mice after cisplatin treatment, 4 weeks after transplantation)	numbers of nestin-positive and CD31+ endothelial cells in the femur ([3]; cisplatin-treated mice after transplantation)	bone marrow function after transplantation (BMNCs, LSK cells, LT-HSCs) ([3]; cisplatin-treated mice, 4 weeks after transplanting bone marrow)	mouse survival ([3]; cisplatin-treated mice, lethal irradiation and BMNC transplantation)	sensory neuropathy (hot-plate latency) [2, 5]	number of nestin-positive and CD31+ endothelial cells [4, 5]	reduced density of Th+ fibers in BM [4, 5]	protection of Th+ fibers and perivascular niche cells ([4]; cisplatin-treated Lyz2-cre, Y1fl/fl mice (no Y1 receptor in macrophages))
N.N.[Cl][Pt][Cl] [Cisplatin, cisplatin, reference compound]	53.5 ± 6.1%	12.8 ± 0.8 g/dL	17.1 ± 0.8 pg	27.0 ± 4.2 g/dL	66.1 ± 5.2 fL	11.3 ± 2.3 fL	165.7 ± 42.4 m/mm^3	6.1 ± 0.8 m/mm^3	19.4 ± 0.3%	2.2 ± 0.4 m/mm^3	had sensory neuropathy	–	–	–	–	–	–	–	–
neuropeptide Y [NPY]	49.5 ± 9.3%	14.4 ± 0.9 g/dL	17.35 ± 1.4 pg	33.2 ± 7.6 g/dL	58.2 ± 8.8 fL	11.4 ± 2.8 fL	219.3 ± 65.8 m/mm^3	8.4 ± 0.4 m/mm^3	19.4 ± 0.8%	5.3 ± 0.4 m/mm^3	–	increase	restored	restored	enhanced	improved	improved	improved	did not show NPY-mediated protection
